Nine molecules from patent US8426441B2, “Inhibitors of bruton's tyrosine kinase” (Roche Palo Alto LLC, priority 2007, dated 2013) can be followed below.

The target of data set [1] is T1, Btk enzyme (His-tagged, full-length) (Homo sapiens, UniProt Q06187).
T1 construct: 5-10 nM Btk enzyme (His-tagged, full-length); His
The data set can be described thus: Bruton's Tyrosine Kinase (Btk) Inhibition Assay (33P filtration capture). In kind it is biochemical. The conditions noted are these: 100 μM ATP, 30 μM biotinylated SH2 peptide substrate, 30 min at 30° C. The source says: The assay is a capture of radioactive ^33P phosphorylated product through filtration. The interactions of Btk, biotinylated SH2 peptide substrate (Src homology), and ATP lead to phosphorylation of the peptide substrate. Biotinylated product is bound streptavidin sepharose beads. All bound, radiolabeled products are detected by scintillation counter.
Plates assayed are 96-well polypropylene (Greiner) and 96-well 1.2 μm hydrophilic PVDF filter plates (Millipore). Concentrations reported here are final assay concentrations: 10-100 μM compounds in DMSO (Burdick and Jackson), 5-10 nM Btk enzyme (His-tagged, full-length), 30 μM peptide substrate (Biotin-Aca-AAAEEIYGEI-NH2), 100 μM ATP (Sigma), 8 mM imidazole (Sigma, pH 7.2), 8 mM glycerol-2-phosphate (Sigma), 200 μM EGTA (Roche Diagnostics), 1 mM MnCl2 (Sigma), 20 mM MgCl2 (Sigma), 0.1 mg/ml BSA (Sigma), 2 mM DTT (Sigma), 1 μCi ^33P ATP (Amersham), 20% streptavidin sepharose beads (Amersham), 50 mM EDTA (Gibco), 2 M NaCl (Gibco), 2 M NaCl w/1% phosphoric acid (Gibco), microscint-20 (Perkin Elmer).
IC50 determinations are calculated from 10 data points per compound utilizing data produced from a standard 96-well plate assay template. One control compound and seven unknown inhibitors were tested on each plate and each plate was run twice. Typically, compounds were diluted in half-log starting at 100 μM and ending at 3 nM. The control compound was staurosporine. Background was counted in the absence of peptide substrate. Total activity was determined in the presence of peptide substrate. The following protocol was used to determine Btk inhibition.
1) Sample preparation: The test compounds were diluted at half-log increments in assay buffer (imidazole, glycerol-2-phosphate, EGTA, MnCl2, MgCl2, BSA).
2) Bead preparation • a.) rinse beads by centrifuging at 500 g • b.) reconstitute the beads with PBS and EDTA to produce a 20% bead slurry
3) Pre-incubate reaction mix without substrate (assay buffer, DTT, ATP, P ATP) and mix with substrate (assay buffer, DTT, ATP, ^33P ATP, peptide substrate) 30° C. for 15 min.
4) To start assay, pre-incubate 10 μL Btk in enzyme buffer (imidazole, glycerol-2-phosphate, BSA) and 10 μL of test compounds for 10 min at RT.
5) Add 30 μL reaction mixture without or with substrate to Btk and compounds.
6) Incubate 50 μL total assay mix for 30 min at 30° C.
7) Transfer 40 μL of assay to 150 μL bead slurry in filter plate to stop reaction.
8) Wash filter plate after 30 min, with following steps • a. 3×250 μL NaCl • b. 3×250 μL NaCl containing 1% phosphoric acid • c. 1×250 μL H2O
9) Dry plate for 1 h at 65° C. or overnight at RT
10) Add 50 μL microscint-20 and count ^33P cpm on scintillation counter.
Calculate percent activity from raw data in cpm percent activity=(sample−bkg)/(total activity−bkg)×100
Calculate IC50 from percent activity, using one-site dose response sigmoidal model y=A+((B−A)/(1+((x/C)^D)))) • x=cmpd conc, y=% activity, A=min, B=max, C=IC50, D=1 (hill slope)

Molecules are shown by their SMILES.

T1 sequence (Q06187 whole entry): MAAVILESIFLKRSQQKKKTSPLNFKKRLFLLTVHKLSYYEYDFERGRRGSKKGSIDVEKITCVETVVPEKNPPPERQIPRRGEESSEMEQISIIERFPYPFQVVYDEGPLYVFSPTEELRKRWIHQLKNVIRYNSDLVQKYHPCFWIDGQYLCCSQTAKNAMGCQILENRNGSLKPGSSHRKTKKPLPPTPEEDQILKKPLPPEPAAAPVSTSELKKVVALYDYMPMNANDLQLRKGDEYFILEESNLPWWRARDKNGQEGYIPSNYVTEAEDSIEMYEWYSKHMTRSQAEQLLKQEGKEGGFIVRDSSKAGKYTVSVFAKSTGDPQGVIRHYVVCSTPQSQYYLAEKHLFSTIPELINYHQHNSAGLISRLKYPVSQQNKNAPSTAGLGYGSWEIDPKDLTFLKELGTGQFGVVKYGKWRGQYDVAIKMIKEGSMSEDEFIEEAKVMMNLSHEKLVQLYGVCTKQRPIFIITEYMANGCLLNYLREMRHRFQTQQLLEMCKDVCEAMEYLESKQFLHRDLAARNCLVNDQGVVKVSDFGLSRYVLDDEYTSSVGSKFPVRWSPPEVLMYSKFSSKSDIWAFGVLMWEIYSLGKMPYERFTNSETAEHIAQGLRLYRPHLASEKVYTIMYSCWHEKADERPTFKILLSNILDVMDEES

For the molecule `CCNC(=O)Nc1cc(-c2cccc(NC(=O)c3ccc(C(C)(C)C)cc3)c2C)nn2ccnc12` [Example I-7, 4-tert-Butyl-N-{3-[8-(3-ethyl-ureido)-imidazo[1,2-b]pyridazin-6-yl]-2-methyl-phenyl}-benzamide], the melting point is 181 to 183 °C. This molecule yielded an IC50 in data set [1] of 22 nM. `O=C(Nc1cccc(-c2cc(Nc3ccc(C(=O)N4CCOCC4)cn3)c3nccn3n2)c1CO)c1ccc(C2CC2)cc1` [Example I-43, 4-Cyclopropyl-N-(2-hydroxymethyl-3-{8-[5-(morpholine-4-carbonyl)-pyridin-2-ylamino]-imidazo[1,2-b]pyridazin-6-yl}-phenyl)-benzamide] came in with a half-maximal inhibitory concentration (IC50) in data set [1] of 13 nM.

On to `CNC(=O)Nc1cc(-c2cccc(NC(=O)c3ccc(C(C)(C)C)cc3)c2C)cn2ccnc12` [Example I-56, 4-tert-Butyl-N-{2-methyl-3-[8-(3-methyl-ureido)-imidazo[1,2-a]pyridin-6-yl]-phenyl}-benzamide], for which the melting point was 148 to 149 °C. In data set [1], the IC50 worked out at 24 nM. For the molecule `Cc1c(NC(=O)NC2CCC(S(C)(=O)=O)CC2)cccc1-c1cc(Nc2ccc(C(=O)N3CCOCC3)cn2)c2nccn2c1` (centres unmarked) [Example I-218, 1-(4-Methanesulfonyl-cyclohexyl)-3-(2-methyl-3-{8-[5-(morpholine-4-carbonyl)-pyridin-2-ylamino]-imidazo[1,2-a]pyridin-6-yl}-phenyl)-urea], in data set [1], the half-inhibitory concentration (IC50) stood at 10 nM. Same read-out and setting: next, `Cn1ccc(Nc2cc(-c3cccc(NC(=O)c4ccc(C5CC5)cc4)c3CO)nn3ccnc23)n1` [Example I-45, 4-Cyclopropyl-N-{2-hydroxymethyl-3-[8-(1-methyl-1H-pyrazol-3-ylamino)-imidazo[1,2-b]pyridazin-6-yl]-phenyl}-benzamide]: 15 nM.

Take `Cc1c(NC(=O)c2ccc(C(C)(C)C)cc2)cccc1-c1cc(NC(=O)NCCO)c2nccn2n1` [Example I-11, 4-tert-Butyl-N-(3-{8-[3-(2-hydroxy-ethyl)-ureido]-imidazo[1,2-b]pyridazin-6-yl}-2-methyl-phenyl)-benzamide]: the melting point lay in the range of 183 to 184 °C. In data set [1], this molecule displayed an IC50 of 19 nM. The corresponding values for `Cc1c(NC(=O)c2ccc(C(C)(C)C)cc2)cccc1-c1cc(NC(=O)NCCCN(C)C)c2nccn2c1` [Example I-77, 4-tert-Butyl-N-(3-{8-[3-(3-dimethylamino-propyl)-ureido]-imidazo[1,2-a]pyridin-6-yl}-2-methyl-phenyl)-benzamide] are 182.7 to 199.7 °C and 18 nM. Taken in the same sequence, the figures for `CNC(=O)Nc1cc(-c2cccc(NC(=O)c3ccc(C(C)(C)C)cc3)c2C)nn2ccnc12` [Example I-8, 4-tert-Butyl-N-{2-methyl-3-[8-(3-methyl-ureido)-imidazo[1,2-b]pyridazin-6-yl]-phenyl}-benzamide] were 163 to 165 °C and 10 nM. For `CCNC(=O)Nc1cc(-c2cccc(NC(=O)c3ccc(C(C)(C)C)cc3)c2C)cn2ccnc12` [Example I-53, 4-tert-Butyl-N-{3-[8-(3-ethyl-ureido)-imidazo[1,2-a]pyridin-6-yl]-2-methyl-phenyl}-benzamide], the IC50 in data set [1] was 13 nM.

In general, IC50 refers to the concentration that inhibits the measured activity by half. Read a low IC50 as greater potency. Broadly, the melting point is the temperature, or range, at which the solid turns liquid.
